Measurements as given in PubChem BioAssay AID248 (DTP/NCI, 2004).
“And” between values parts separate entries of the source, which are not always exact repeats. Equal entries are not always repeated. Inconclusive results and toxic doses are left out.

System: L1210 leukemia ip in BDF1 mice, survival T/C
Test: NCI In Vivo Anticancer Drug Screen. Data for tumor model L1210 Leukemia (intraperitoneal) in B6D2F1 (BDF1) mice
Conditions: higher = longer survival
In short: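 Read-out is survival time, reported as the treated-group measurement over the vehicle-control measurement.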

`CN(N=O)C(=O)NC(C=O)C(O)C(O)C(O)CO` (stereo not given) was tested, and the T/C (endpoint: mean survival time, dose: 3.5 mg/kg/injection, schedule: Q#A X Z (ip), vehicle: saline) was 108 % of control, the T/C (endpoint: mean survival time, dose: 4.0 mg/kg/injection, schedule: Q#A X Z (ip), vehicle: saline) was 105 % of control and the T/C (endpoint: mean survival time, dose: 5.5 mg/kg/injection, schedule: Q#A X Z (ip), vehicle: saline) was 116 % of control. For the same molecule, the T/C (endpoint: mean survival time, dose: 6.0 mg/kg/injection, schedule: Q01DX Z (ip), vehicle: saline) was 105 % of control, the T/C (endpoint: mean survival time, dose: 6.0 mg/kg/injection, schedule: Q#A X Z (ip), vehicle: saline) was 103 % of control and the T/C (endpoint: mean survival time, dose: 8.0 mg/kg/injection, schedule: Q01DX Z (ip), vehicle: saline) was 97 % of control. The T/C (endpoint: mean survival time, dose: 8.5 mg/kg/injection, schedule: Q#A X Z (ip), vehicle: saline) was 118 % of control, the T/C (endpoint: mean survival time, dose: 9.0 mg/kg/injection, schedule: Q#A X Z (ip), vehicle: saline) was 106 % of control and the T/C (endpoint: mean survival time, dose: 12.0 mg/kg/injection, schedule: Q01DX Z (ip), vehicle: saline) was 105 % of control and 106 % of control. The T/C (endpoint: mean survival time, dose: 12.5 mg/kg/injection, schedule: Q01DX009 (ip), vehicle: saline) was 95 % of control and 101 % of control, the T/C (endpoint: mean survival time, dose: 12.5 mg/kg/injection, schedule: Q01DX Z (ip), vehicle: saline) was 96 % of control and 101 % of control and the T/C (endpoint: mean survival time, dose: 18.0 mg/kg/injection, schedule: Q01DX Z (ip), vehicle: saline) was 108 % of control. For the same molecule, the T/C (endpoint: mean survival time, dose: 24.5 mg/kg/injection, schedule: Q01DX Z (ip), vehicle: water) was 111 % of control, the T/C (endpoint: mean survival time, dose: 25.0 mg/kg/injection, schedule: Q01DX009 (ip), vehicle: saline) was 101 % of control and 103 % of control and the T/C (endpoint: mean survival time, dose: 25.0 mg/kg/injection, schedule: Q01DX Z (im), vehicle: saline) was 109 % of control. For the same molecule, the T/C (endpoint: mean survival time, dose: 26.0 mg/kg/injection, schedule: Q01DX Z (ip), vehicle: saline) was 118 % of control, the T/C (endpoint: mean survival time, dose: 26.0 mg/kg/injection, schedule: Q01DX Z (sc), vehicle: saline) was 110 % of control and the T/C (endpoint: mean survival time, dose: 30.0 mg/kg/injection, schedule: Q#A X Z (ip), vehicle: saline) was 112 % of control. For the same molecule, the T/C (endpoint: mean survival time, dose: 34.0 mg/kg/injection, schedule: Q03DX005 (ip), vehicle: saline) was 103 % of control, the T/C (endpoint: mean survival time, dose: 36.0 mg/kg/injection, schedule: Q03DX003 (ip), vehicle: saline) was 118 % of control and the T/C (endpoint: mean survival time, dose: 40.0 mg/kg/injection, schedule: Q01DX009 (iv), vehicle: saline) was 120 % of control. For the same molecule, the T/C (endpoint: mean survival time, dose: 40.0 mg/kg/injection, schedule: Q01DX Z (ip), vehicle: saline) was 151 % of control, the T/C (endpoint: mean survival time, dose: 40.0 mg/kg/injection, schedule: Q01DX Z (sc), vehicle: saline) was 106 % of control and 107 % of control and 112 % of control and the T/C (endpoint: mean survival time, dose: 50.0 mg/kg/injection, schedule: Q01DX009 (ip), vehicle: saline) was 110 % of control and 111 % of control. For the same molecule, the T/C (endpoint: mean survival time, dose: 50.0 mg/kg/injection, schedule: Q01DX Z (im), vehicle: saline) was 100 % of control, the T/C (endpoint: mean survival time, dose: 52.0 mg/kg/injection, schedule: Q03DX005 (ip), vehicle: saline) was 108 % of control and the T/C (endpoint: mean survival time, dose: 60.0 mg/kg/injection, schedule: Q01DX009 (iv), vehicle: saline) was 111 % of control. The T/C (endpoint: mean survival time, dose: 60.0 mg/kg/injection, schedule: Q01DX Z (ip), vehicle: saline) was 160 % of control, the T/C (endpoint: mean survival time, dose: 60.0 mg/kg/injection, schedule: Q01DX Z (iv), vehicle: saline) was 115 % of control and the T/C (endpoint: mean survival time, dose: 78.0 mg/kg/injection, schedule: Q03DX005 (ip), vehicle: saline) was 118 % of control. For the same molecule, the T/C (endpoint: mean survival time, dose: 78.0 mg/kg/injection, schedule: Q03DX 5 (iv), vehicle: saline) was 117 % of control, the T/C (endpoint: mean survival time, dose: 80.0 mg/kg/injection, schedule: Q03DX004 (ip), vehicle: saline) was 151 % of control and the T/C (endpoint: mean survival time, dose: 80.0 mg/kg/injection, schedule: Q07DX001 (ip), vehicle: saline) was 124 % of control. For the same molecule, the T/C (endpoint: mean survival time, dose: 90.0 mg/kg/injection, schedule: Q01DX 1 (iv), vehicle: saline) was 118 % of control, the T/C (endpoint: mean survival time, dose: 90.0 mg/kg/injection, schedule: Q01DX009 (iv), vehicle: saline) was 115 % of control and the T/C (endpoint: mean survival time, dose: 90.0 mg/kg/injection, schedule: Q01DX Z (ip), vehicle: saline) was 152 % of control and 166 % of control. For the same molecule, the T/C (endpoint: mean survival time, dose: 90.0 mg/kg/injection, schedule: Q01DX Z (iv), vehicle: saline) was 121 % of control, the T/C (endpoint: mean survival time, dose: 90.0 mg/kg/injection, schedule: Q03DX 5 (iv), vehicle: saline) was 114 % of control and the T/C (endpoint: mean survival time, dose: 90.0 mg/kg/injection, schedule: Q07DX 2 (iv), vehicle: saline) was 106 % of control. The T/C (endpoint: mean survival time, dose: 99.5 mg/kg/injection, schedule: Q01DX Z (ip), vehicle: water) was 111 % of control, the T/C (endpoint: mean survival time, dose: 100.0 mg/kg/injection, schedule: Q01DX009 (ip), vehicle: saline) was 101 % of control and 120 % of control and the T/C (endpoint: mean survival time, dose: 100.0 mg/kg/injection, schedule: Q01DX Z (im), vehicle: saline) was 120 % of control and 124 % of control. For the same molecule, the T/C (endpoint: mean survival time, dose: 100.0 mg/kg/injection, schedule: Q01DX Z (oral), vehicle: saline) was 111 % of control, the T/C (endpoint: mean survival time, dose: 104.0 mg/kg/injection, schedule: Q01DX Z (oral), vehicle: saline) was 101 % of control and the T/C (endpoint: mean survival time, dose: 120.0 mg/kg/injection, schedule: Q01DX001 (ip), vehicle: saline) was 119 % of control. For the same molecule, the T/C (endpoint: mean survival time, dose: 120.0 mg/kg/injection, schedule: Q01DX 1 (iv), vehicle: saline) was 112 % of control, the T/C (endpoint: mean survival time, dose: 120.0 mg/kg/injection, schedule: Q07DX 2 (iv), vehicle: saline) was 102 % of control and the T/C (endpoint: mean survival time, dose: 125.0 mg/kg/injection, schedule: Q01DX001 (ip), vehicle: saline) was 114 % of control. For the same molecule, the T/C (endpoint: mean survival time, dose: 135.0 mg/kg/injection, schedule: Q01DX Z (iv), vehicle: saline) was 95 % of control, the T/C (endpoint: mean survival time, dose: 135.0 mg/kg/injection, schedule: Q01DX Z (sc), vehicle: saline) was 108 % of control and 91 % of control and 92 % of control and the T/C (endpoint: mean survival time, dose: 160.0 mg/kg/injection, schedule: Q01DX Z (oral), vehicle: saline) was 101 % of control. For the same molecule, the T/C (endpoint: mean survival time, dose: 180.0 mg/kg/injection, schedule: Q01DX 1 (iv), vehicle: saline) was 109 % of control, the T/C (endpoint: mean survival time, dose: 180.0 mg/kg/injection, schedule: Q03DX Z (ip), vehicle: saline) was 151 % of control and the T/C (endpoint: mean survival time, dose: 180.0 mg/kg/injection, schedule: Q07DX 2 (iv), vehicle: saline) was 111 % of control. The T/C (endpoint: mean survival time, dose: 182.0 mg/kg/injection, schedule: Q07DX Z (ip), vehicle: saline) was 123 % of control, the T/C (endpoint: mean survival time, dose: 200.0 mg/kg/injection, schedule: Q01DX009 (ip), vehicle: saline) was 90 % of control and the T/C (endpoint: mean survival time, dose: 200.0 mg/kg/injection, schedule: Q01DX Z (im), vehicle: saline) was 91 % of control. The T/C (endpoint: mean survival time, dose: 200.0 mg/kg/injection, schedule: Q01DX Z (ip), vehicle: saline) was 87 % of control, the T/C (endpoint: mean survival time, dose: 200.0 mg/kg/injection, schedule: Q01DX Z (oral), vehicle: saline) was 105 % of control and the T/C (endpoint: mean survival time, dose: 240.0 mg/kg/injection, schedule: Q01DX Z (oral), vehicle: saline) was 101 % of control. The T/C (endpoint: mean survival time, dose: 250.0 mg/kg/injection, schedule: Q01DX001 (ip), vehicle: saline) was 115 % of control, the T/C (endpoint: mean survival time, dose: 270.0 mg/kg/injection, schedule: Q01DX 1 (iv), vehicle: saline) was 98 % of control and the T/C (endpoint: mean survival time, dose: 270.0 mg/kg/injection, schedule: Q07DX 2 (iv), vehicle: saline) was 106 % of control. The T/C (endpoint: mean survival time, dose: 400.0 mg/kg/injection, schedule: Q01DX Z (oral), vehicle: saline) was 117 % of control, the T/C (endpoint: mean survival time, dose: 405.0 mg/kg/injection, schedule: Q01DX001 (ip), vehicle: saline) was 108 % of control and 89 % of control and the T/C (endpoint: mean survival time, dose: 420.0 mg/kg/injection, schedule: Q07DX Z (ip), vehicle: saline) was 93 % of control. The T/C (endpoint: mean survival time, dose: 500.0 mg/kg/injection, schedule: Q01DX001 (ip), vehicle: saline) was 117 % of control, the T/C (endpoint: mean survival time, dose: 540.0 mg/kg/injection, schedule: Q01DX Z (oral), vehicle: saline) was 95 % of control and the T/C (endpoint: mean survival time, dose: 800.0 mg/kg/injection, schedule: Q01DX Z (oral), vehicle: saline) was 105 % of control. For the same molecule, the T/C (endpoint: mean survival time, dose: 1000.0 mg/kg/injection, schedule: Q01DX001 (ip), vehicle: saline) was 97 % of control, the T/C (endpoint: median survival time, dose: 25.0 mg/kg/injection, schedule: Q01DX017 (ip), vehicle: water) was 122 % of control and the T/C (endpoint: median survival time, dose: 50.0 mg/kg/injection, schedule: Q01DX017 (ip), vehicle: water) was 150 % of control.
`O=C1c2cc(Cl)ccc2-c2ccc([N+](=O)[O-])cc21` was tested, and the T/C (endpoint: mean survival time, dose: 100.0 mg/kg/injection, schedule: Q04DX003 (ip), vehicle: Klucel (hydroxypropylcellulose) (HPC)) was 100 % of control, the T/C (endpoint: mean survival time, dose: 200.0 mg/kg/injection, schedule: Q04DX003 (ip), vehicle: Klucel (hydroxypropylcellulose) (HPC)) was 97 % of control and the T/C (endpoint: mean survival time, dose: 400.0 mg/kg/injection, schedule: Q04DX003 (ip), vehicle: Klucel (hydroxypropylcellulose) (HPC)) was 106 % of control.
For `CSc1nn[nH]n1`, the T/C (endpoint: mean survival time, dose: 25.0 mg/kg/injection, schedule: Q01DX009 (ip), vehicle: acetone) was 93 % of control, the T/C (endpoint: mean survival time, dose: 50.0 mg/kg/injection, schedule: Q01DX009 (ip), vehicle: acetone) was 96 % of control and the T/C (endpoint: mean survival time, dose: 50.0 mg/kg/injection, schedule: Q04DX003 (ip), vehicle: saline) was 92 % of control. The T/C (endpoint: mean survival time, dose: 100.0 mg/kg/injection, schedule: Q01DX001 (ip), vehicle: acetone) was 98 % of control, the T/C (endpoint: mean survival time, dose: 100.0 mg/kg/injection, schedule: Q01DX009 (ip), vehicle: acetone) was 91 % of control and the T/C (endpoint: mean survival time, dose: 100.0 mg/kg/injection, schedule: Q04DX003 (ip), vehicle: saline) was 97 % of control. The T/C (endpoint: mean survival time, dose: 200.0 mg/kg/injection, schedule: Q01DX001 (ip), vehicle: acetone) was 93 % of control.
For `CCCCCCCCCCCC(=O)OCC1OC2C(Oc3nc(=N)ccn32)C1OC(=O)CCCCCCCCCCC` (stereo not given), the T/C (endpoint: mean survival time, dose: 12.5 mg/kg/injection, schedule: Q01DX009 (ip), vehicle: water) was 157 % of control, the T/C (endpoint: mean survival time, dose: 25.0 mg/kg/injection, schedule: Q01DX009 (ip), vehicle: water) was 210 % of control and the T/C (endpoint: mean survival time, dose: 50.0 mg/kg/injection, schedule: Q01DX009 (ip), vehicle: water) was 165 % of control.
